According to patent US20090081197A1 (Palatin Technologies, Inc., priority 2007, published 2009):
pEC50: −log10 of the molar value. Read-outs that look alike come from different tables or passages of the source.

Tests used:
[1] = target: T1, MC1-R (Mus musculus, UniProt Q01727); assay: Competitive inhibition assay using [I^125]-NDP-α-MSH, B-16 mouse melanoma cell membranes; assay type: binding; conditions: for inhibition at 1 µM: 1 μM test compound, read-out: Inhibition at 1 μM (NDP-α-MSH) In Normal System, MC1-R; for Ki: read-out: Ki (nM) (NDP-α-MSH) In Normal System, MC1-R
T1 construct: B-16 mouse melanoma cells (containing MC1-R); endogenous in cells
Procedure, shortened: (§1)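 Tracer was 0.4 nM for MC3-R and MC5-R, 0.2 nM for MC4-R and 0.1 nM for MC1-R. Bound radioactivity was gamma-counted after filtration; values are triplicate means, with results below 0% reported as 0%.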

[2] = target: T1, MC1-R; assay: cAMP functional activity assay in B-16 mouse melanoma cells; assay type: cell-based; conditions: 1 μM concentration where stated
Experimental: (§2) General method for EC50 determination in functional activity assay. […] Data analysis and EC50 values were determined using nonlinear regression analysis with Prism Graph-Pad software.
(§3) Functional status. The agonist/antagonist status with respect to MC1-R, MC-3R, MC4-R and MC5-R of certain compounds of the invention was determined. Antagonistic activity was determined by measuring the inhibition of α-MSH-induced or NDP-α-MSH-induced cAMP levels following exposure to graded doses of compounds as in the preceding descriptions.

[3] = Penile erection induction in male rats; assay type: in vivo; conditions: rat
Procedure, shortened: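 Male Sprague-Dawley rats (200-250 g), groups of 4-8, dosed IV or ICV at various doses and observed individually for penile erections. Only statistically relevant increases over vehicle-control mean PEs count as induction; IV responses below 1.0 PEs/rat treated as equivocal, some retested ICV.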

[4] = target: T2, MC3-R (Homo sapiens, UniProt P41968); assay: Competitive inhibition assay using [I^125]-NDP-α-MSH, hMC3-R membranes; assay type: binding; design: expressed in transfected cells; conditions: for inhibition at 1 µM: 1 μM test compound, read-out: Inhibition at 1 μM (NDP-α-MSH) In Normal System, MC3-R
Procedure, shortened: as §1

[5] = target: T3, MC5-R (Homo sapiens, UniProt P33032); assay: Competitive inhibition assay using [I^125]-NDP-α-MSH, hMC5-R membranes; assay type: binding; design: expressed in transfected cells; conditions: for inhibition at 1 µM: 1 μM test compound, read-out: Inhibition at 1 μM (NDP-α-MSH) In Normal System, MC5-R
Procedure, shortened: as §1

[6] = target: T4, MC4-R (Homo sapiens, UniProt P32245); assay: cAMP functional activity assay in HEK-293 cells, normal system; assay type: cell-based; design: expressed in transfected cells; host or cells: HEK-293; conditions: for intrinsic activity at MC4-R in a normal system: normal receptor density system, NDP-α-MSH = 1.0; for functional status at MC4-R in cAMP assay: normal system, 1 μM concentration where stated
[7] = target: T3, MC5-R; assay: cAMP functional activity assay in HEK-293 cells; assay type: cell-based; design: expressed in transfected cells; host or cells: HEK-293; conditions: 1 μM concentration where stated
Experimental: as §2, §3

[8] = target: T4, MC4-R; assay: Competitive inhibition assay using [I^125]-NDP-α-MSH, hMC4-R membranes; assay type: binding; design: host or cells: TREx-293 (HEK-293 stably expressing Tet repressor); conditions: for inhibition at 1 µM: 1 μM test compound, read-out: Inhibition at 1 μM (NDP-α-MSH) In Normal System, MC4-R
Procedure, shortened: as §1

[9] = target: T4, MC4-R; assay: cAMP agonist stimulation, low receptor density system (0.1 ng/mL doxycycline); conditions: 0.1 ng/mL doxycycline, low receptor density hMC4-R system; NDP-α-MSH maximal cAMP = 1.0
[10] = target: T4, MC4-R; assay: cAMP agonist stimulation, high receptor density system (10 ng/mL doxycycline); conditions: for Efficacy/Intrinsic Activity: NDP-α-MSH maximal cAMP = 1.0
[11] = target: T2, MC3-R; assay: cAMP functional activity assay in HEK-293 cells; assay type: cell-based; design: expressed in transfected cells; host or cells: HEK-293; conditions: 1 μM concentration where stated
Experimental: as §2, §3

[12] = 10 ng/mL doxycycline, high receptor density hMC4-R system

T2 sequence (P41968 whole entry): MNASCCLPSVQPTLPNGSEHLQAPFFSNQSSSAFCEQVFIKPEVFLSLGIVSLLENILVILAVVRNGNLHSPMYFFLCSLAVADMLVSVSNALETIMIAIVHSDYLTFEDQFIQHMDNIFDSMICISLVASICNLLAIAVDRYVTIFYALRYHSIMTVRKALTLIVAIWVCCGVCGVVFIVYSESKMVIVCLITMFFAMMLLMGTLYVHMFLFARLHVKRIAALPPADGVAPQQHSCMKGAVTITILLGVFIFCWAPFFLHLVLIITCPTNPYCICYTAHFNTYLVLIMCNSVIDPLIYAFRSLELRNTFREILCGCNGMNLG
T4 sequence (P32245 whole entry): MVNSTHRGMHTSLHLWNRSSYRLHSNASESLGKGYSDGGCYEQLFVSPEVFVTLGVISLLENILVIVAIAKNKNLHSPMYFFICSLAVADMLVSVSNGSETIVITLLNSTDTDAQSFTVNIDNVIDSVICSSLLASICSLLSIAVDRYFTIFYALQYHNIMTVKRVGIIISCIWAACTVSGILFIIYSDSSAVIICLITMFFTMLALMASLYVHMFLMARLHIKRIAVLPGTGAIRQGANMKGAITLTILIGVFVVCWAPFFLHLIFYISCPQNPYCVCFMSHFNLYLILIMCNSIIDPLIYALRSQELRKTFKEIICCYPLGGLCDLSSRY
T3 sequence (P33032 whole entry): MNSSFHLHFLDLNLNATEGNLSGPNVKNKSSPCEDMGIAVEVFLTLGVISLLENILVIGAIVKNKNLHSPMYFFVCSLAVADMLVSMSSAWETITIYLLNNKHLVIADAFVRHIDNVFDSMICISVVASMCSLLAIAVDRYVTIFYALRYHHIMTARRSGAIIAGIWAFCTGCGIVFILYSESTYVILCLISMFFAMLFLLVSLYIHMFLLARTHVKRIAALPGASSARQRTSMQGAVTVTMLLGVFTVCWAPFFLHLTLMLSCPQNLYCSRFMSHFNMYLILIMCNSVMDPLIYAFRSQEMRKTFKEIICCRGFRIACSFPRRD
T1 sequence (Q01727 whole entry): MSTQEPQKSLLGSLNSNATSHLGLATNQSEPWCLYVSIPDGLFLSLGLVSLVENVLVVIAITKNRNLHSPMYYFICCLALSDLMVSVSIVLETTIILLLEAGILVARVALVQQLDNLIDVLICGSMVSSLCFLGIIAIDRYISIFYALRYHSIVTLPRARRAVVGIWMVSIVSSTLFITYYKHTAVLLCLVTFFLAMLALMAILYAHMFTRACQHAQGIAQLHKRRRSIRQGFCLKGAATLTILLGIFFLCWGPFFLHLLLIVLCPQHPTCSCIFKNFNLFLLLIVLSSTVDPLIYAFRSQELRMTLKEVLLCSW

Compound | inhibition at 1 µM [1] | Ki [1] | functional status at MC1-R in cAMP assay [2] | Penile Erection IV ([3]; IV) | inhibition at 1 µM [4] | inhibition at 1 µM [5] | intrinsic activity at MC4-R in a normal system [6] | functional status at MC4-R in cAMP assay [6] | functional status at MC5-R in cAMP assay [7] | inhibition at 1 µM [8] | Efficacy/Intrinsic Activity [9] | pEC50 [10] | Efficacy/Intrinsic Activity [10, 12] | penile erection response ([3]; IV, 0.3 to 30 μg/kg) | functional status at MC3-R in cAMP assay [11] | Penile Erection ICV ([3]; ICV) | also measured
N=C(N)NCCC[C@H]1C(=O)N(CCc2c[nH]c3ccccc23)CCN1C(=O)[C@H](N)Cc1ccc(Cl)cc1Cl [Example 2, N-(3-{(S)-1-[(R)-2-Amino-3-(2,4-dichloro-phenyl)-propionyl]-4-[2-(1H-indol-3-yl)-ethyl]-3-oxo-piperazin-2-yl}-propyl)-guanidine] | 7% | 1410 nM | partial agonist (intrinsic activity between 0.1 (10%) and 0.7 (70%) is classified as a partial agonist) | No | 57% | 35% | 0.3 | partial agonist (intrinsic activity between 0.1 (10%) and 0.7 (70%) is classified as a partial agonist) | partial agonist (intrinsic activity between 0.1 (10%) and 0.7 (70%) is classified as a partial agonist) | 96% | None | 7.24 | 0.56 |  |  |  | penile erection response ([3]; IV, 0.3 to 3 μg/kg): did not cause penile erection behavior
Cc1ccc(CCN2C[C@H](CCCNC(=N)N)N(C(=O)[C@H](N)Cc3ccc4ccccc4c3)C[C@H]2C)cc1 [Example 5, N-{3-[1-(2(R)-Amino-3-naphthalen-2-yl-propionyl)-5(R)-methyl-4-(2-p-tolyl-ethyl)-piperazin-2(S)-yl]-propyl}-guanidine] | 32% | 135 nM | partial agonist (intrinsic activity between 0.1 (10%) and 0.7 (70%) is classified as a partial agonist) | No | 61% | 65% | 0.6 | partial agonist (intrinsic activity between 0.1 (10%) and 0.7 (70%) is classified as a partial agonist) | partial agonist (intrinsic activity between 0.1 (10%) and 0.7 (70%) is classified as a partial agonist) | 95% | None | 6.93 | 0.46 | no penile erection response | no intrinsic activity (intrinsic activity below 0.1 (10%) is classified as inactive or having no intrinsic activity) |  | 
C[C@@H]1CN(C(=O)[C@H](N)Cc2ccc3ccccc3c2)[C@@H](CCCNC(=N)N)CN1C(=O)Cc1c[nH]c2ccccc12 [Example 6, N-{3-[1-(2(R)-Amino-3-naphthalen-2-yl-propionyl)-4-(2-1H-indol-3-yl-acetyl)-5(R)-methyl-piperazin-2(S)-yl]-propyl}-guanidine] | 20% | 315 nM | no intrinsic activity (intrinsic activity below 0.1 (10%) is classified as inactive or having no intrinsic activity) | No | 35% | 6% | 0.2 | partial agonist (intrinsic activity between 0.1 (10%) and 0.7 (70%) is classified as a partial agonist) | partial agonist (intrinsic activity between 0.1 (10%) and 0.7 (70%) is classified as a partial agonist) | 90% | None | 7.41 | 0.43 | no penile erection response | no intrinsic activity (intrinsic activity below 0.1 (10%) is classified as inactive or having no intrinsic activity) |  | 
C[C@@H]1CN(C(=O)[C@H](N)Cc2ccc3ccccc3c2)[C@@H](CCCNC(=N)N)CN1C(=O)CCCc1c[nH]c2ccccc12 [Example 7] | 0% | 1200 nM | no intrinsic activity (intrinsic activity below 0.1 (10%) is classified as inactive or having no intrinsic activity) |  | 32% | 62% | 0.4 | partial agonist (intrinsic activity between 0.1 (10%) and 0.7 (70%) is classified as a partial agonist) | no intrinsic activity (intrinsic activity below 0.1 (10%) is classified as inactive or having no intrinsic activity) | 88% | None | 7.14 | 0.38 |  | no intrinsic activity (intrinsic activity below 0.1 (10%) is classified as inactive or having no intrinsic activity) | No | penile erection response ([3]; ICV, 0.01 to 10 nmol): no penile erection response
Cc1[nH]c2ccccc2c1CCN1C[C@H](CCCNC(=N)N)N(C(=O)[C@H](N)Cc2ccc3ccccc3c2)C[C@H]1C [Example 8, N-(3-{1-(2(R)-Amino-3-naphthalen-2-yl-propionyl)-5(R)-methyl-4-[2-(2-methyl-1H-indol-3-yl)-ethyl]-piperazin-2(S)-yl}-propyl)-guanidine] | 73% | 148 nM | partial agonist (intrinsic activity between 0.1 (10%) and 0.7 (70%) is classified as a partial agonist) |  | 57% | 76% | 0.9 | agonist (intrinsic activity of 0.7 (70%) or higher is classified as an agonist) | agonist (intrinsic activity of 0.7 (70%) or higher is classified as an agonist) | 95% | None |  | None |  | no intrinsic activity (intrinsic activity below 0.1 (10%) is classified as inactive or having no intrinsic activity) | No | penile erection response ([3]; ICV, 0.01 to 10 nM): no penile erection response
N-{3-[1-[2(R)-Amino-3-(4-chloro-2-fluoro-phenyl)-propionyl]-5(S)-methyl-4-(2-naphthalen-2-yl-ethyl)-piperazin-2(S)-yl]-propyl}-guanidine [Example 3] |  | 109 nM | partial agonist (intrinsic activity between 0.1 (10%) and 0.7 (70%) is classified as a partial agonist) |  |  |  |  | no intrinsic activity (intrinsic activity below 0.1 (10%) is classified as inactive or having no intrinsic activity) | no intrinsic activity (intrinsic activity below 0.1 (10%) is classified as inactive or having no intrinsic activity) |  | None |  | 0.26 |  |  |  | Ki ([4]; read-out: Ki (nM) (NDP-α-MSH) In Normal System, MC3-R): 186 nM; Ki ([5]; read-out: Ki (nM) (NDP-α-MSH) In Normal System, MC5-R): 204 nM; Ki ([8]; read-out: Ki (nM) (NDP-α-MSH) In Normal System, MC4-R): 6 nM; pEC50 [10, 12]: 7.21
